Data from PMC10525312, “Identification of a Novel Bioactive Peptide Derived from Frozen Chicken Breast Hydrolysate and the Utilization of Hydrolysates as Biopreservatives” (Biology, 2023).

How the values were obtained:
[1] = commercial food antioxidants; cited from earlier work
Excerpt: Free radicals can be produced as a result of lipid oxidation, causing major health issues and having a negative impact on food quality. One of the solutions to prevent lipid oxidation is the use of protein hydrolysates.

ACE = settings: peptides after in vitro gastrointestinal digestion of chicken meat; read-out: ACE inhibitory activity IC50; cited from earlier work
Excerpt: The ACE inhibitory activity of C25 was more po ...

[2] = tested on: Pseudomonas putida ATCC 12633^T; experiment: MIC, broth microdilution assay, Pseudomonas putida; type: cell-based; settings: C25, Luria Bertani medium, OD 620 nm, twofold dilutions
Excerpt: (§1) The following indicator bacteria were used to determine the minimum inhibitory concentrations (MICs) as described by Wiegand et al. and Maky and Zendo [14] by using a broth microdilution assay. Weizmannia (Bacillus) coagulans JCM 2257^T, Salmonella enterica serovar Typhimurium NBRC 13243^T, Listeria innocua ATCC 33090^T, Proteus vulgaris F24B [24] and Escherichia coli JM109 were cultivated in Tryptic Soy Broth (BD, Sparks, MD, USA) supplemented with 0.6% yeast extract. Enterococcus faecalis JCM 5803^T was cultivated in MRS medium (Oxoid, Basingstoke, UK), while Pseudomonas putida ATCC 12633^T was cultivated in Luria Bertani medium (BD). Briefly, the bacterial inhibition was assessed at an optical density at 620 nm using an Infinite F200 Pro microplate reader (Tecan, Männedorf, Switzerland) after the indicator strains were cultured with twofold serial dilutions of chicken hydrolysates and C25.

[3] = tested on: Enterococcus faecalis JCM 5803^T; experiment: MIC, broth microdilution assay, Enterococcus faecalis; type: cell-based; settings: C25, MRS medium, OD 620 nm, twofold dilutions
Excerpt: as §1

[4] = DPPH antioxidant activity assay (DPPH antioxidant assay kit); type: biochemical; settings: 25 °C for 30 min in the dark, absorbance 450 nm
Method: The antioxidant activity of the chicken hydrolysate and C25 was assessed utilizing a DPPH antioxidant assay kit (Dojindo Laboratories) as described in the instructions provided by the manufacturer and as elaborated by Maky and Zendo [14]. Briefly, 20 µL of the investigated samples was applied to a microtiter plate and 80 µL of assay buffer, 100 µL of ethanol and 100 µL of DPPH working solution were mixed with the samples. Then, the plate was incubated at 25 °C for 30 min in the dark. The absorbance was measured by using a Sunrise microplate absorbance reader (Tecan) at 450 nm.

[5] = tested on: Salmonella enterica serovar Typhimurium NBRC 13245^T; experiment: MIC, broth microdilution assay, Salmonella Typhimurium; type: cell-based; settings: C25, Tryptic Soy Broth + 0.6% yeast extract, OD 620 nm, twofold dilutions
Excerpt: as §1

[6] = tested on: Listeria innocua ATCC 33090^T; experiment: MIC, broth microdilution assay, Listeria innocua; type: cell-based; settings: C25, Tryptic Soy Broth + 0.6% yeast extract, OD 620 nm, twofold dilutions
Excerpt: as §1

[7] = tested on: Weizmannia coagulans JCM 2257^T; experiment: MIC, broth microdilution assay, Weizmannia coagulans; type: cell-based, Weizmannia (Bacillus) coagulans; settings: C25, Tryptic Soy Broth + 0.6% yeast extract, OD 620 nm, twofold dilutions
Excerpt: as §1

In the case of COc1ccc(O)c(C(C)(C)C)c1 [Butylated hydroxyanisole (BHA), Butylated hydroxyanisole], the “Antioxidant activity IC50” value [1] is listed as 112.05 µg/mL.

In the case of Cc1cc(C(C)(C)C)c(O)c(C(C)(C)C)c1 [butylated hydroxytoluene (BHT), butylated hydroxytoluene], the “Antioxidant activity IC50” value [1] is listed as 202.35 µg/mL.

In the case of ELFTT, the IC50 (ACE) is given as 6.35 µM.

In the case of H-IHAEEILDIRGNPTVEVDLHTAKGH-OH [C25], the “MIC (class symbol)” value [2] is reported as “NA ^2 (NA ^2 > 24 μg/mL)”, the “MIC (class symbol)” value [3] is reported as “NA ^2 (NA ^2 > 24 μg/mL)” and the “Antioxidant activity (in words)” value [4] is reported as “no activity was observed”. For the same compound, the “MIC (class symbol)” value [5] was “NA ^2 (NA ^2 > 24 μg/mL)”, the “MIC (class symbol)” value [6] was “NA ^2 (NA ^2 > 24 μg/mL)” and the “MIC (class symbol)” value [7] was “NA ^2 (NA ^2 > 24 μg/mL)”.

For KPLL, the IC50 (ACE) is given as 12 µM.
